For assay [1], the target named is T1, Neutrophil elastase (Homo sapiens) (UniProt P08246).
T1 sequence (whole entry): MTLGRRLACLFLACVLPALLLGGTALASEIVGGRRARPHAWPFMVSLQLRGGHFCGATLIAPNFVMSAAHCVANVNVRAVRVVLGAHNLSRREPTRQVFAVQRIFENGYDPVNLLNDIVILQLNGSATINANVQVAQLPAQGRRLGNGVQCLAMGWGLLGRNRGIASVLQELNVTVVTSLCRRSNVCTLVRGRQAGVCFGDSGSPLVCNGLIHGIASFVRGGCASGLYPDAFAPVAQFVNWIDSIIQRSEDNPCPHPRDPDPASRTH
Put plainly: Compound was evaluated for inhibitory activity against human leukocyte elastase.

The target of assay [2] is T2, Myeloblastin (Homo sapiens) (UniProt P24158).
T2 sequence (whole entry): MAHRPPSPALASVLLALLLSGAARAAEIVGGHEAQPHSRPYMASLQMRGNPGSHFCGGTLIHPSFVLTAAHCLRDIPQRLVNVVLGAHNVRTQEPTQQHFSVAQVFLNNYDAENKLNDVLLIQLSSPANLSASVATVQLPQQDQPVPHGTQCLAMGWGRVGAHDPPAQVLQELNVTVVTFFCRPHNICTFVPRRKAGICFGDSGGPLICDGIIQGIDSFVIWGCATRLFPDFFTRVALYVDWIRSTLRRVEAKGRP
As to the kind of experiment: Compound was evaluated for inhibitory activity against Proteinase 3.

The target of assay [3] is T3, Cathepsin G (Homo sapiens) (UniProt P08311).
T3 sequence (whole entry): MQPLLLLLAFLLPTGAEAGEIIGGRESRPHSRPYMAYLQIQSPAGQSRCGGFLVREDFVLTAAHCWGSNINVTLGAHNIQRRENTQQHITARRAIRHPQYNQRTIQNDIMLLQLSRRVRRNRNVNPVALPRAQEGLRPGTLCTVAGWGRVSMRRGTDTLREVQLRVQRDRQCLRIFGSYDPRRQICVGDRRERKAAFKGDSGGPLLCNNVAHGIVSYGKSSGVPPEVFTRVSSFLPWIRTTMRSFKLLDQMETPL
Put plainly: Compound was evaluated for inhibitory activity towards Cathepsin G.

SMILES strings stand for the structures.

In the case of `CCCCOP(=O)(OCCCC)OCN1C(=O)C(CC(C)C)N(CC2C=CC=C2)S1(=O)=O` (centres undefined), in assay [1], the K inact/Ki was found to be 2.5e+06 M⁻¹ s⁻¹.
On the same count and under the same terms, the result for `CCCCOP(=O)(OCCCC)OCN1C(=O)C(CC(C)C)N(C)S1(=O)=O` (centres undefined) reads 2.7e+06 M⁻¹ s⁻¹.
On the same count and under the same terms, the result for `CC(C)CC1C(=O)N(COP(=O)(Oc2ccccc2)Oc2ccccc2)S(=O)(=O)N1CC1C=CC=C1` (centres undefined) reads 4.2e+06 M⁻¹ s⁻¹.
For the compound `CC(C)CC1C(=O)N(COP(=O)(OCc2ccccc2)OCc2ccccc2)S(=O)(=O)N1Cc1ccccc1` (centres undefined), the K inact/Ki in assay [1] was found to be 6e+06 M⁻¹ s⁻¹; in assay [2], 89100 M⁻¹ s⁻¹; in assay [3] it was 120 M⁻¹ s⁻¹.
In assay [1], `COP(=O)(OC)OCN1C(=O)C(CC(C)C)N(CC2C=CC=C2)S1(=O)=O` (centres undefined) showed a K inact/Ki of 430000 M⁻¹ s⁻¹.
`CCCCOP(=O)(OCCCC)OCN1C(=O)C(CC(C)C)CS1(=O)=O` (centres undefined): in assay [1], the K inact/Ki turned out to be 82000 M⁻¹ s⁻¹.
Turning to `CC(C)CC1CS(=O)(=O)N(COP(=O)(OCc2ccccc2)OCc2ccccc2)C1=O` (centres undefined), the K inact/Ki in assay [1] was 95000 M⁻¹ s⁻¹.

These data come from ChEMBL document CHEMBL1130769, “Use of the 1,2,5-thiadiazolidin-3-one 1,1 dioxide and isothiazolidin-3-one 1,1 dioxide scaffolds in the design of potent inhibitors of serine proteinases” (Bioorg Med Chem Lett, 1998).
